Source: paper PMC11758220, “Identification of a Privileged Scaffold for Inhibition of Sterol Transport Proteins through the Synthesis and Ring Distortion of Diverse, Pseudo-Natural Products” (ACS Central Science, 2025)
pKd: −log10 of the molar value.

Legend:
ORP2 = target: T1, ORP2 (Homo sapiens, UniProt Q9H1P3); test: Effect on intrinsic protein fluorescence, ORP2; conditions: protein 1 µM, excitation 280 nm
T1 construct: ORP2(49-480); host or cells: E. coli BL21(DE3)
T1 sequence (Q9H1P3 49-480): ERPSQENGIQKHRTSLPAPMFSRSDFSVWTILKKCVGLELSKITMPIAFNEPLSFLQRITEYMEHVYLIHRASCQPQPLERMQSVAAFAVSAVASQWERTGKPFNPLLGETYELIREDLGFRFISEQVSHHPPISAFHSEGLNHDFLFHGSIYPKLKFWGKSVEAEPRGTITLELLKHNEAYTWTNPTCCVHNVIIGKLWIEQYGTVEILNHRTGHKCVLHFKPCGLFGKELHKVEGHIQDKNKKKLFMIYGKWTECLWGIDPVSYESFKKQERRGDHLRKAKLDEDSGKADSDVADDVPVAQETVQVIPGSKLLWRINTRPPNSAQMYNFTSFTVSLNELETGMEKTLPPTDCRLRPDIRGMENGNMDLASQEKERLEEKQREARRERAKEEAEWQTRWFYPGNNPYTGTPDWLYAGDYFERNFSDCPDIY
Procedure: (§1) Effect of spirooxepinoindoles on intrinsic protein fluorescence
(§2) Figure S12: Spirooxepinoindoles 21a and 15f affect intrinsic protein fluorescence in dose-dependent fashion:
(§3) Respective proteins (1 µM) were incubated with the compounds at different doses. Proteins were excited at 280 ± 10 nm and fluorescence spectra were measured from 315 ± 20 nm to 600 ± 20 nm with a step size of 2 nm. A) STARD1 and 21a. B) ORP1 and 21a. C) ORP2 and 21a. D) ORP2 and 15f.
(§4) (1 picture or pasted object on this page, not shown here)
(§5) Superdex 75 pg (Cytiva) using an ÄKTA Explorer (Cytiva) in buffer containing 10 mM Tris -HCl, pH 8, 150 mM NaCl, 5 % glycerol and 2 mM DTT.
(§6) Fluorescence intensity and polarisation
(§7) Fluorescence intensity and polarisation (FP) experiments were performed in a buffer containing 20 mM HEPES pH 7.5, 300 mM NaCl, 0.01 %v/v Tween-20, 0.5% glycerol and 2 mM DTT in a final volume of 30 µl in black, flat-bottom, non-binding 384-well plates (Corning). All compounds were dispensed using the LabCyte Echo 550 Liquid handler. […] For competition experiments, 20 nM 22-NBD-cholesterol or 80 nM 25-NBD-cholesterol was mixed with protein and incubated with desired concentrations of screening compounds (Table S4) The fluorescence polarisation signal was measured using a Spark Cyto multimode microplate reader (Tecan) with filters set at 485 ± 20 nm for excitation and at 535 ± 20 nm for emission. […]

ORP1 = target: T2, ORP1 (Homo sapiens, UniProt Q9BXW6); test: Effect on intrinsic protein fluorescence, ORP1; conditions: protein 1 µM, excitation 280 nm
T2 construct: ORP1(534-950); host or cells: E. coli BL21(DE3)
T2 sequence (Q9BXW6 534-950): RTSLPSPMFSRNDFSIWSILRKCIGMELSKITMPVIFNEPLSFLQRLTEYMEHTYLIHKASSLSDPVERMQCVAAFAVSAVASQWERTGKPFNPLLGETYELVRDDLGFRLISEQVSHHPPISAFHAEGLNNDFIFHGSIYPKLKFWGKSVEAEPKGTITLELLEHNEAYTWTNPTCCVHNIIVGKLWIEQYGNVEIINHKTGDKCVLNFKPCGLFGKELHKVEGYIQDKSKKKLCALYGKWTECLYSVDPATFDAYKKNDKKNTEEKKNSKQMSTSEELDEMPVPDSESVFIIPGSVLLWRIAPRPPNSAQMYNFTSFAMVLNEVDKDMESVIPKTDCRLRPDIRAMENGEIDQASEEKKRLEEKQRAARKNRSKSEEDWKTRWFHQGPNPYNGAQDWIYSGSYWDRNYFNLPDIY
Procedure: as §1, §2, §3, §4, §5, §6, §7

STARD4 = target: T3, STARD4 (Homo sapiens, UniProt Q96DR4, C75S); design: method as in Depta et al.[43]; conditions: data reproduced; ref Depta et al.[43]; read-out: STARD4 Kd,app (DSF); cited from earlier work
T3 construct: STARD4(2-205; C75S); made in house; host or cells: E. coli BL21(DE3)
T3 sequence (Q96DR4 2-205 C75S): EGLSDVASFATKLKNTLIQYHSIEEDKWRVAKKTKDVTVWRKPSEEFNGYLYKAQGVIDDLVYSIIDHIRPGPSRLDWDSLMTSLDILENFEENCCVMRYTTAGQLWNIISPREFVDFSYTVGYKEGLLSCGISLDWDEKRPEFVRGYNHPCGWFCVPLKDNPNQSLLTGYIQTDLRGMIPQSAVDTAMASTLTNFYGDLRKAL

Structure (SMILES) | Quenching of intrinsic fluorescence of ORP2 (ORP2) | Quenching of intrinsic fluorescence of ORP1 (ORP1) | pKd (STARD4)
COc1ccc2c(c1)[C@@]13CC[C@@H]4C[C@@H](CC[C@@]41C)OC3=N2 [Compound 15f] | quenches the ORP2 protein fluorescence in a dose-dependent manner | – | –
C[C@]12CC[C@@H]3C[C@H]1CC[C@@]21C(=Nc2ccc(-c4ccccc4)cc21)O3 [Compound 21a] | dose-dependently quenches | dose-dependently quenches | –
CCN(CC)CCO[C@H]1CC[C@@]2(C)C(=CC[C@@H]3[C@@H]2CC[C@]2(C)C(=O)CC[C@@H]32)C1 [Compound U18666A, reference compound] | – | – | < 4.52
